Measured values published in patent publication US11155557B2, “Pyrazolopyrimidine compounds and methods of use thereof” (Genentech, Inc., priority 2016, dated 2021).

Tests used:
[1] = biological target: isolated recombinant JAK1 kinase domain (Homo sapiens (Human), UniProt P23458); test: JAK1 enzyme assay (Caliper LabChip, Ki); type: biochemical
Procedure: The activity of the isolated recombinant JAK1 and JAK2 kinase domain was measured by monitoring phosphorylation of a peptide derived from JAK3 ([…] fluorescently labeled on the N-terminus with 5-carboxyfluorescein) using the Caliper LabChip R technology (Caliper Life Sciences, Hopkinton, Mass.).

[2] = test system: JAK1-dependent STAT6 phosphorylation in BEAS-2B human bronchial epithelial cells; test: JAK1 pathway assay: IL-13 stimulated STAT6 phosphorylation in BEAS-2B cells; type: cell-based; conditions: Homo sapiens, BEAS-2B, BEAS-2B cells, IL-13 stimulation; read-out: IL-13 p-STAT6 BEAS-2B IC50
Outline: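 BEAS-2B bronchial epithelial cells plated one day before, run in complete growth medium. Phospho-STAT6 in lysates measured by MesoScale Discovery; EC50 reported.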

[3] = biological target: isolated recombinant JAK2 kinase domain (Homo sapiens (Human), UniProt O60674); test: JAK2 enzyme assay (Caliper LabChip, Ki); conditions: read-out: JAK2 Ki
isolated recombinant JAK2 kinase domain, sequence (O60674 849-1124): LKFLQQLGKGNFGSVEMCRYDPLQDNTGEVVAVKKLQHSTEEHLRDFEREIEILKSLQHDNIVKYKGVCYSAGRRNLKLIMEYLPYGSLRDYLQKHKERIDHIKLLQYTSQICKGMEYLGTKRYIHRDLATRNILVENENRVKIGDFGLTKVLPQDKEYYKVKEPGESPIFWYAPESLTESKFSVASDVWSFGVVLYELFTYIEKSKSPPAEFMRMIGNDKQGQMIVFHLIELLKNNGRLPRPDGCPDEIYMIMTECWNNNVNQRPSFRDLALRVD

isolated recombinant JAK1 kinase domain, sequence (P23458 875-1153): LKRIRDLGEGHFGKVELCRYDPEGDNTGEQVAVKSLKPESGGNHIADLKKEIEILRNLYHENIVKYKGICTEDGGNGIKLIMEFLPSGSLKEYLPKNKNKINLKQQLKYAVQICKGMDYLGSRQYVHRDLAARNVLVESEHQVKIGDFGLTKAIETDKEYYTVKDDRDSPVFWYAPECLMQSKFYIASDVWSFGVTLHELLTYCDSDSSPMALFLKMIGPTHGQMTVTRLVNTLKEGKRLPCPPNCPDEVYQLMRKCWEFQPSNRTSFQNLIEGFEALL

| Ki [1] [nM] | Ki [3] [nM] | SMILES | IC50 [2] [nM] |
| --- | --- | --- | --- |
| 0.26 | 0.21 | Cn1nncc1Cn1cc(NC(=O)c2cnn3cccnc23)c(-c2cc3c(cc2OC(F)F)NCCO3)n1 [Example 133, N-[3-[6-(difluoromethoxy)-3,4-dihydro-2H-1,4-benzoxazin-7-yl]-1-[(3-methyltriazol-4-yl)methyl]pyrazol-4-yl]pyrazolo[1,5-a]pyrimidine-3-carboxamide] | 17 |
| 0.4 | 0.47 | O=C(Nc1cn(CC2(O)CCOCC2)nc1-c1cc2c(cc1OC(F)F)NCCO2)c1cnn2cccnc12 [Example 134, N-[3-[6-(difluoromethoxy)-3,4-dihydro-2H-1,4-benzoxazin-7-yl]-1-[(4-hydroxytetrahydropyran-4-yl)methyl]pyrazol-4-yl]pyrazolo[1,5-a]pyrimidine-3-carboxamide] | 23 |
| 0.19 | 0.14 | Cn1nnnc1Cn1cc(NC(=O)c2cnn3cccnc23)c(-c2cc3c(cc2OC(F)F)NCCO3)n1 [Example 135, N-[3-[6-(difluoromethoxy)-3,4-dihydro-2H-1,4-benzoxazin-7-yl]-1-[(1-methyltetrazol-5-yl)methyl]pyrazol-4-yl]pyrazolo[1,5-a]pyrimidine-3-carboxamide] | 26 |
| 0.23 | 0.17 | Cn1nnc(Cn2cc(NC(=O)c3cnn4cccnc34)c(-c3cc4c(cc3OC(F)F)NCCO4)n2)n1 [Example 136, N-[3-[6-(difluoromethoxy)-3,4-dihydro-2H-1,4-benzoxazin-7-yl]-1-[(2-methyltetrazol-5-yl)methyl]pyrazol-4-yl]pyrazolo[1,5-a]pyrimidine-3-carboxamide] | 21 |
| 0.09 | 0.08 | Cn1cc(NC(=O)c2cnn3cccnc23)c(-c2cc3c(cc2OC(F)F)NC(=O)CO3)n1 [Example 137, N-[3-[6-(difluoromethoxy)-3-oxo-4H-1,4-benzoxazin-7-yl]-1-methyl-pyrazol-4-yl]pyrazolo[1,5-a]pyrimidine-3-carboxamide] | 8 |
| 0.26 | 0.32 | O=C(Nc1cn(CC(=O)N2CC(F)(F)C2)nc1-c1cc2c(cc1OC(F)F)NCCO2)c1cnn2cccnc12 [Example 138, N-[1-[2-(3,3-difluoroazetidin-1-yl)-2-oxo-ethyl]-3-[6-(difluoromethoxy)-3,4-dihydro-2H-1,4-benzoxazin-7-yl]pyrazol-4-yl]pyrazolo[1,5-a]pyrimidine-3-carboxamide] | 36 |
| 0.33 | 0.21 | O=C(Nc1cn(C2COC2)nc1-c1cc2sncc2cc1OC(F)F)c1cnn2cccnc12 [Example 139, N-[3-[5-(difluoromethoxy)-1,2-benzothiazol-6-yl]-1-(oxetan-3-yl)pyrazol-4-yl]pyrazolo[1,5-a]pyrimidine-3-carboxamide] | 10 |
| 0.09 | 0.06 | N#CCn1cc(NC(=O)c2cnn3cccnc23)c(-c2cc3c(cc2OC(F)F)NCCS3)n1 [Example 140, N-[1-(cyanomethyl)-3-[6-(difluoromethoxy)-3,4-dihydro-2H-1,4-benzothiazin-7-yl]pyrazol-4-yl]pyrazolo[1,5-a]pyrimidine-3-carboxamide] | 4 |
| 0.22 | 0.97 | CN(C)C(=O)Cn1cc(NC(=O)c2cnn3cccnc23)c(-c2cc3cnsc3cc2OC(F)F)n1 [Example 143, N-[3-[6-(difluoromethoxy)-1,2-benzothiazol-5-yl]-1-[2-(dimethylamino)-2-oxo-ethyl]pyrazol-4-yl]pyrazolo[1,5-a]pyrimidine-3-carboxamide] | 13 |
| 0.14 | 0.11 | N#CCn1cc(NC(=O)c2cnn3cccnc23)c(-c2cc3c(cc2OC(F)F)NCCO3)n1 [Example 144, N-[1-(cyanomethyl)-3-[6-(difluoromethoxy)-3,4-dihydro-2H-1,4-benzoxazin-7-yl]pyrazol-4-yl]pyrazolo[1,5-a]pyrimidine-3-carboxamide] | 7 |
| 0.34 | 0.32 | Cn1cc(NC(=O)c2cnn3cccnc23)c(-c2cc3c(cc2OC(F)F)NC2(COC2)CO3)n1 [Example 147, N-(3-(6-(difluoromethoxy)-2,4-dihydrospiro[benzo[b][1,4]oxazine-3,3′-oxetan]-7-yl)-1-methyl-1H-pyrazol-4-yl)pyrazolo[1,5-a]pyrimidine-3-carboxamide] | 14 |
| 0.51 | 0.17 | C[C@H]1CNc2cc(OC(F)F)c(-c3n[nH]cc3NC(=O)c3cnn4cccnc34)cc2O1 [Example 148, (S)—N-(3-(6-(difluoromethoxy)-2-methyl-3,4-dihydro-2H-benzo[b][1,4]oxazin-7-yl)-1H-pyrazol-4-yl)pyrazolo[1,5-a]pyrimidine-3-carboxamide] | 55 |
| 1.33 | 0.64 | Cn1cc(NC(=O)c2cnn3cccnc23)c(-c2cc3c(cc2OC(F)F)NCC(C)(C)O3)n1 [Example 149, N-(3-(6-(difluoromethoxy)-2,2-dimethyl-3,4-dihydro-2H-benzo[b][1,4]oxazin-7-yl)-1-methyl-1H-pyrazol-4-yl)pyrazolo[1,5-a]pyrimidine-3-carboxamide] | 43 |
| 1.65 | 0.61 | O=C(Nc1c[nH]nc1-c1cc2c(cc1OC(F)F)OCCO2)c1cnn2cccnc12 [Example 150, N-(3-(7-(difluoromethoxy)-2,3-dihydrobenzo[b][1,4]dioxin-6-yl)-1H-pyrazol-4-yl)pyrazolo[1,5-a]pyrimidine-3-carboxamide] | 61 |
| 0.77 | 0.25 | O=C(Nc1c[nH]nc1-c1cc2c(cc1OC(F)F)SCCO2)c1cnn2cccnc12 [Example 151, N-(3-(6-(difluoromethoxy)-2,3-dihydrobenzo[b][1,4]oxathiin-7-yl)-1H-pyrazol-4-yl)pyrazolo[1,5-a]pyrimidine-3-carboxamide] | 30 |
| 0.1 | 0.06 | O=C(Nc1c[nH]nc1-c1cc2sncc2cc1OC(F)F)c1cnn2cccnc12 [Example 152, N-(3-(5-(difluoromethoxy)benzo[d]isothiazol-6-yl)-1H-pyrazol-4-yl)pyrazolo[1,5-a]pyrimidine-3-carboxamide] | 4 |
| 0.15 | 0.08 | O=C(Nc1c[nH]nc1-c1cc2cnsc2cc1OC(F)F)c1cnn2cccnc12 [Example 153, N-(3-(6-(difluoromethoxy)benzo[d]isothiazol-5-yl)-1H-pyrazol-4-yl)pyrazolo[1,5-a]pyrimidine-3-carboxamide] | 5 |
| 0.4 | 0.38 | CC(C)OC(=O)n1cc(NC(=O)c2cnn3cccnc23)c(-c2cc3c(cc2OC(F)F)NCCO3)n1 [Example 154, Propan-2-yl 3-[6-(difluoromethoxy)-3,4-dihydro-2H-1,4-benzoxazin-7-yl]-4-[pyrazolo[1,5-a]pyrimidine-3-amido]-1H-pyrazole-1-carboxylate] | 22 |
